Assay results taken from article PMC9246869, “Allosteric inhibition of PPM1D serine/threonine phosphatase via an altered conformational state” (Nature Communications, 2022).

Target: T1, PPM1D1–420 (Homo sapiens, UniProt O15297)
T1 construct: PPM1D1–420 was PCR-amplified from the synthesized gene with BsaI sites; His(6)-SUMO (N, cleaved yes); made in house; host or cells: E. coli BL21 (DE3)
T1 sequence (O15297 1-420): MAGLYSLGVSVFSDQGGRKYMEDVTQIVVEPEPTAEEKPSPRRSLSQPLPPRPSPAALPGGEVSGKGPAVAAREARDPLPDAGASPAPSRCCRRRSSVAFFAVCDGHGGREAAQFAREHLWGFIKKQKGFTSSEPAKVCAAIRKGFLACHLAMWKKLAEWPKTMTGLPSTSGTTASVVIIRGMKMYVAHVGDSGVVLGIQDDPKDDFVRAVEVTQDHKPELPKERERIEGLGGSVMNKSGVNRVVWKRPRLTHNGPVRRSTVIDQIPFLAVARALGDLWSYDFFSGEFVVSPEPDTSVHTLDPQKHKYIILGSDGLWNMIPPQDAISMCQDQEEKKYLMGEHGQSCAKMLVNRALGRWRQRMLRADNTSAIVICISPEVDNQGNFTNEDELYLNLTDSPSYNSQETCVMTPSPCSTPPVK
Assay: Hydrogen–deuterium exchange mass spectrometry (HDX-MS)
Protocol: Hydrogen–deuterium exchange in PPM1D proteins (PPM1D1–420, PPM1D∆Flap, and PPM1D∆Hinge) was monitored by incubating 27 pmoles of protein in storage buffer (50 mM Tris HCl pH 7.4, 500 mM NaCl, 10% glycerol, 10 mM MgCl2, 1 mM TCEP, H2O) with a 10-fold molar excess of GSK2830371 (270 pmoles) in DMSO, or 3.85% DMSO as a control. Due to the low solubility of the compound, the exact molar excess was unknown. […] The slow off-rate of the compound likely plays a role in this. The PPM1D:GSK/DMSO mix equilibrated for 15 min at room temperature, followed by the addition of a 15-fold excess of labeling buffer (20 mM HEPES, pD 7.5, 25 mM NaCl, 5 mM MgCl2, 0.1 mM TCEP, D2O) at 25 °C. Analysis of C-terminal truncations of PPM1D were performed without the DMSO and preincubation step. […]
All samples were digested immediately after quench by injecting directly into an M-class nanoAcquity UPLC with HDX technology (Waters) for online digestion with an Enzymate BEH pepsin column [2.1 × 30 mm, 5 μm (Waters)] and UPLC peptide separation. […] Back-exchange was calculated based on deuterium uptake observed in peptides within PPM1D that are solvent accessible, lack structure, and display these characteristics in their uptake profile (high deuterium incorporation that remains a flat line over 4 h time course). […]

Question: For `Cc1ncc(Cl)cc1NCc1ccc(C(=O)N[C@@H](CC2CCCC2)C(=O)NC2CC2)s1` [GSK2830371], which “protein in the exposed population (bimodal distribution, residues 270-278) in presence of compound” value is on record?
Answer: > 95%
